Experimental data reported in patent publication US20090170749A1, “Novel Compounds Which Interact With PEA-15” (Institut National De La Sante Et De La Recherche Medicale …, priority 2005, published 2009).
Entries after “also recorded” stand apart in the source; their conditions may differ.

Tests used:
[1] = target: T1, GFP-PEA-15 (Mus musculus, UniProt Q62048); assay: Detection of the interaction of 6D6-1 with GFP-PEA-15 by FRET in 3T3-GFP-PEA-15 cells; format: cell-based; conditions: 6D6-1 tested at 10^-4 M and 10^-5 M, 60 minutes, excitation 465 nm
T1 construct: expressed in transfected cells
Method: The cell line 3T3 expressing the GFP-PEA-15 (3T3-GFP-PEA-15 cell) was obtained as described by FORMSTECHER et al. (Dev. Cell., 2001, 1:239) by transfection of NIH3T3 cells with a EGFP-PEA-15 plasmide obtained as described by KITSBERG et al. (J. Neurosci., 1999, 19: 8244).
Clones resistant to the neomycin (G418) were selected and cultivated in a DMEM (Roche) medium supplemented with 10% of foetal calf serum, 2 mM of glutamine, penicillin (5 IU/ml) and streptomycin ([…]).
The GFP-PEA-15 protein expression was checked by the measurement of the fluorescence of the living cells and a WESTERN transfer analysis with an anti-GFP antibody (Roche, cat. No. 1,814,460 mixture of two monoclonal antibodies obtained from a mouse (clone 7.1 and clone 13.1)) and an anti-PEA-15 (rabbit polyclonal antibody, Sharif et al., Neuroscience, 126: 263, 2004).
The 3T3-GFP-PEA-15 cells are then cultivated up to confluence in a HAM-F12 medium comprising penicillin (10 000 U/ml)/streptomycin (10 000 μg/ml), 7% of foetal calf serum (BIOWHITTAKER) before the fluorescence resonance energy transfer (FRET) experiences. […]
After adding the 6D6-1 compound, the cells are gently agitated (100 rpm) for 60 minutes before the fluorescence read-out, in order to enable the compounds to diffuse and enter into the cells. […]
The GFP protein excited at 465 nm emits a fluorescence signal at 535 nm.

[2] = target: T2, GST-PEA-15 fusion protein (Mus musculus, UniProt Q62048); assay: 6D6-1/PEA-15 protein interaction: fluorescence of glutathione Sepharose beads carrying GST-PEA-15; format: binding
T2 construct: made in house
Method: The GST-PEA-15 fusion protein was obtained according to the protocol described by Kitsberg et al. (J. Neurosci, 1999, 19: 8244).
The GST-PEA-15 fusion proteins were recovered after lysis of bacteria and were incubated together with a Sepharose bead covered with glutathione.
The beads thus obtained are incubated in the presence of 1 or 5 μM of 6D6-1, in a 20 mM Tris-HCl, pH 7.4; 100 mM NaCl; 1 mM MgCl2; 1% Triton X-100 buffer).
After a series of three washings, the beads are dried on a cellulose membrane and the fluorescence is quantified by means of a phosphoimager (Biorad), by measuring the fluorescence of the lissamine with excitation at 543 nm and measurement of the emission at 590 nm.
The results are the average of three independent experiences.

[3] = tested on: ERK; assay: Effect of 6D6-1 on ERK and PEA-15 subcellular location in primary astrocyte cultures (confocal microscopy); format: cell-based, mouse; conditions: primary astrocytes, 24 hours without serum; 50 μM 6D6-1 for 2 hours 15 minutes
Method: Primary astrocyte cultures were prepared from cortex and striatum of mouse embryos (day 16) as described by ARAUJO et al. (J. Biol. Chem., 1993, 268: 5911).
The primary astrocyte cultures were maintained for 24 hours in the absence of serum, a condition known to induce a mainly cytoplasmic location of ERK.
The cells were then treated or not with 50 μM of the 6D6-1 compound for 2 hours 15 minutes.
The subcellular location of ERK and PEA-15 was observed by confocal microscopy after labeling the cells with fluorescent antibodies.
The cells were washed twice with PBS (Dulbecco phosphate saline buffer, without CaCl2 nor MgCl2, Sigma), and fixed with 4% paraformaldehyde in PBS (pH 7.5), for 15 minutes, then washed twice with PBS comprising 0.1 M of glycine, at ambient temperature.
Then, the cells were incubated for 5 minutes in PBS containing 0.2% of X-100 triton.
The non-specific sites were blocked with PBS containing 10% of normal goat serum (NGS) for one hour at ambient temperature.
Then the cells were incubated overnight at 4° C. with PEA-15 specific antibodies (rabbit polyclonal antibody, Sharif et al., Neuroscience, 2004) or ERK specific antibodies (rabbit polyclonal antibody, Santa Cruz K-23 (ref. Sc-94)), diluted in PBS containing 1.5% of NGS. […]

T2 sequence (Q62048 whole entry, the tested form may be a part): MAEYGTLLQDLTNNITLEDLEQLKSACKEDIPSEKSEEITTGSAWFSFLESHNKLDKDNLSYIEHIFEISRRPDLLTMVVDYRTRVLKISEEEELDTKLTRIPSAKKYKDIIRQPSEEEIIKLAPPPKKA
T1 sequence (Q62048 whole entry): as the sequence (Q62048 whole entry, the tested form may be a part) above

1-methyl-piperidin-4-His(Bzl)-Lys(o-Lissamine)-1-methyl-1H-imidazol-4-yl)-acetamide [Compound 6D6-1]
fluorescence resonance energy transfer (FRET) on binding to GFP-PEA-15, fluorescence signal at 590 nm [1]: enables a fluorescence resonance energy transfer (FRET)
average intensity of fluorescence of beads carrying GST-PEA-15 ([2]; 1 or 5 μM 6D6-1, excitation 543 nm, emission 590 nm, average of three independent experiences): depends upon the concentration of the compound
interaction with PEA-15 protein ([2]; general statement of the inventors' observation): able to interact in a specific way with a PEA-15 protein
subcellular location of ERK [3]: relocation of the ERK protein in the core; also recorded: relocation of ERK in the nucleus
subcellular location of PEA-15 [3]: remains cytoplasmic
